Results published in ChEMBL document CHEMBL1240319, “New approaches to molecular cancer therapeutics” (Nat Chem Biol, 2006).

Assay: Inhibition of HSP90

| IC50 | Structure (SMILES) |
| --- | --- |
| 0.025 µM | CCNC(=O)c1n[nH]c(-c2cc(Cl)c(O)cc2O)c1-c1ccc(OC)cc1 |
| 9 µM | CCc1cc(-c2[nH]nc(C)c2-c2ccc3c(c2)OCCO3)c(O)cc1O |
